# Test results taken from patent publication US20070243238A1, “Treating mouth sores with patches adhered to teeth” (priority 2006, published 2007).
# Tested on: mouth sores
# Test: Experimentation with amoxicillin on conventional patches for mouth sores
# Assay type: in vivo, human
# Conditions: amoxicillin powder for oral suspension massaged into conventional patch and dried
# From the text: Because use of antibiotics, antibacterials, and other pharmaceutical antimicrobials causes adverse side effects, experimentation with these medications has been limited. […] Conventional amoxicillin powder for preparation of oral suspension was used, which includes sugars and other excipients. The sugars act as a binder to the oral patch. The oral suspension is massaged into the patch and dried. Preferably, the amoxicillin powder is mixed into a stronger than normal liquid before being added to the patch.
structure (smiles),measurement,value
CC1(C)S[C@@H]2[C@H](NC(=O)[C@H](N)c3ccc(O)cc3)C(=O)N2[C@H]1C(=O)O [amoxicillin],effect of medication on patch in treating mouth sores,works quite well
